Legend:
[1] = system: SARS-CoV-2 (βCoV/KOR/KCDC03/2020); test: microbe, parasite or virus in culture; conditions: Severe acute respiratory syndrome coronavirus 2, Vero
in vitro [2] = conditions: monkey
[3] = system: SARS-CoV-2 (βCoV/KOR/KCDC03/2020); test: in vitro; conditions: monkey
in vitro [4] = conditions: human
[5] = system: SARS-CoV-2 (βCoV/KOR/KCDC03/2020); test: microbe, parasite or virus in culture; conditions: Severe acute respiratory syndrome coronavirus 2, Calu-3
[6] = system: SARS-CoV-2 (βCoV/KOR/KCDC03/2020); test: in vitro; conditions: human
[7] = system: SARS-CoV-2 βCoV/Korea/KCDC03/2020, NCCP43326; test: Efficacy in SARS-CoV-2 infected hACE2 transgenic mice (lung virus titer and viral RNA); type: in vivo; conditions: orally at 50 mg/kg, once a day three times, lungs on third day
[8] = system: influenza A H3N2 A/Hong Kong/4801/2014; test: Antiviral activity against influenza virus in MDCK cells; type: cell-based, influenza A virus; conditions: concentration of 6.3 μM
[9] = system: influenza B B/Brisbane/60/2008; test: as above; type: cell-based, influenza B virus; conditions: concentration of 6.3 μM
[10] = system: SARS-CoV-2 virus (B CoV/Korea/KCDC03/2020, NCCP43326); test: Time-of-addition assay in Vero cells; type: cell-based; conditions: 50 μM, MOI 3
[11] = system: influenza A H1N1 A/California/07/2009; test: Antiviral activity against influenza virus in MDCK cells; type: cell-based, influenza A virus; conditions: concentration of 6.3 μM
[12] = system: SARS-CoV-2 spike pseudovirus particles; test: organism not typed; type: cell-based

| Structure (SMILES) | IC50 [1] [µM] | CC50 (in vitro [2]) [µM] | selectivity ratio [3] | other results |
| --- | --- | --- | --- | --- |
| CCCCCCCC/C=C\CCCCCCCC(=O)O [MolPort-001-788-274, (9Z)-octadec-9-enoic acid] | 67.9 | > 100 | – | – |
| c1ccc(Oc2cccc(OCCCN3CCCCC3c3cccnc3)c2)cc1 (stereo not shown) [MolPort-000-829-850, 3-{1-[3-(3-phenoxyphenoxy)propyl]piperidin-2-yl}pyridine and oxalic acid] | 15.6 | 32.4 | 2.08 | – |
| CCCCCCCCC1OCC(OC(=O)c2ccc(OC)cc2)CO1 (stereo not shown) [MolPort-002-515-990, 2-octyl-1,3-dioxan-5-yl 4-methoxybenzoate] | 24.6 | > 100 | – | CC50 (in vitro [4]): > 100 µM; IC50 [5]: 52.2 µM; selectivity ratio [6]: 1.92 |
| O=C(CCCNC(=O)c1cc2ccccc2o1)NCCc1c[nH]c2ccccc12 [MolPort-005-974-761, 4-[(1-benzofuran-2-yl)formamido]-N-[2-(1H-indol-3-yl)ethyl]butanamide] | 71.3 | > 100 | – | – |
| O=C(Cn1ccc2ccc(OCc3ccccc3)cc21)NC[C@@H]1CCCN2CCCC[C@H]12 [MolPort-027-564-475, N-{[(1S,9aR)-octahydro-1H-quinolizin-1-yl]methyl}-2-[6-(benzyloxy)-1H-indol-1-yl]acetamide] | 18.5 | 34.3 | 1.85 | – |
| CCCCCCCCCCC#CC#CCCCCCCCCC(=O)O [MolPort-003-939-688, tricosa-10,12-diynoic acid] | 29.9 | > 100 | – | CC50 (in vitro [4]): > 100 µM; IC50 [5]: 83.8 µM; selectivity ratio [6]: 1.19 |
| CC/C=C\C/C=C\C/C=C\C/C=C\C/C=C\CCCC(=O)O [MolPort-003-933-180, (5Z,8Z,11Z,14Z,17Z)-icosa-5,8,11,14,17-pentaenoic acid] | 41.8 | 70.5 | 1.69 | – |
| CCCCCCCc1ccc(C(=O)Oc2ccc(SC)cc2)cc1 [MolPort-003-713-147, 4-(methylsulfanyl)phenyl 4-heptylbenzoate] | 94.4 | > 100 | – | – |
| CC/C=C\C/C=C\C/C=C\C/C=C\C/C=C\C/C=C\CCC(=O)O [MolPort-003-932-890, (4Z,7Z,10Z,13Z,16Z,19Z)-docosa-4,7,10,13,16,19-hexaenoic acid] | 58.6 | 62.4 | 1.06 | – |
| O=C(OC[C@@H]1CCCN2CCCC[C@H]12)c1ccc(CSCc2ccccc2)o1 [MolPort-002-520-573, [(1R,9aR)-octahydro-1H-quinolizin-1-yl]methyl 5-[(benzylsulfanyl)methyl]furan-2-carboxylate] | 28.5 | 58 | 2.04 | – |
| O=C(NCCc1ccccc1)c1cc2c([nH]c3ccccc32)c(CCc2ccccc2)n1 [MolPort-002-526-760, N,1-bis(2-phenylethyl)-9H-pyrido[3,4-b]indole-3-carboxamide] | 25.8 | 42.2 | 1.63 | – |
| O=C(C[C@@H]1CCNC[C@@H]1Cc1cc(COc2ccccc2)on1)NCc1ccc(F)cc1 [MolPort-005-947-745, N-[(4-fluorophenyl)methyl]-2-[(3R,4S)-3-{[5-(phenoxymethyl)-1,2-oxazol-3-yl]methyl}piperidin-4-yl]acetamide] | 24.3 | 34.7 | 1.43 | – |
| CCCCCC[C@@H](O)C/C=C\CCCCCCCC(=O)O [MolPort-003-939-239, (9Z,12R)-12-hydroxyoctadec-9-enoic acid] | 60.5 | > 100 | – | – |
| CCCCCCCOC(=O)c1ccc(OC(=O)c2cncc(Br)c2)cc1 [MolPort-003-713-431, 4-[(heptyloxy)carbonyl]phenyl 5-bromopyridine-3-carboxylate] | 57.5 | > 100 | – | – |
| O=C(NC[C@@H]1CCCN2CCCC[C@H]12)c1cccc(-c2cc3ccccc3oc2=O)c1 [MolPort-027-564-039, N-{[(1S,9aR)-octahydro-1H-quinolizin-1-yl]methyl}-3-(2-oxo-2H-chromen-3-yl)benzamide] | 23.3 | > 100 | – | – |
| CCCCCOc1cccc(/C=C/C23N=C(O)CCN2c2ccccc2C3(C)C)c1 (stereo not shown) [MolPort-005-980-235, 10,10-dimethyl-10a-[(1E)-2-[3-(pentyloxy)phenyl]ethenyl]-3H,4H,10H,10aH-pyrimido[1,2-a]indol-2-ol] | 8.49 | > 100 | – | viral RNA in the lungs [7]: decreased at a statistically significant level; viral titer (TCID50) in the lungs [7]: tended to decrease; antiviral activity [8]: about 90%; antiviral activity [9]: about 50%; virus infection pattern ([10]; treated 1 hour after virus infection): virus infection could not be prevented; virus infection pattern ([10]; treated 1 hour before virus infection or simultaneously with the virus): virus infection did not occur; IC50 [5]: 15.6 µM; antiviral activity [11]: about 90%; IC50 ([12]; 48 h): 27.5 µM; inhibition at 50 µM ([12]; Severe acute respiratory syndrome coronavirus 2, read-out: inhibition of intracellular entry of the SARS-CoV-2 virus): ~90%; selectivity ratio [6]: 6.42 |
| CC(C)(C)c1cc(CCCOC(=O)CNc2ccccc2)cc(C(C)(C)C)c1O [MolPort-002-151-168, 3-(3,5-di-tert-butyl-4-hydroxyphenyl)propyl 2-(phenylamino)acetate] | 23.5 | > 100 | – | CC50 (in vitro [4]): > 100 µM; IC50 [5]: 60.7 µM; selectivity ratio [6]: 1.65 |
| CCCCCCCc1ccc(C(=O)Oc2ccc(C(=O)O)cc2)cc1 [MolPort-003-709-991, 4-(4-heptylbenzoyloxy)benzoic acid] | 43.3 | > 100 | – | – |
| CCCCC/C=C\C/C=C\CCCCCCCC(=O)O [MolPort-001-788-459, (9Z,12Z)-octadeca-9,12-dienoic acid] | 37.6 | > 100 | – | – |
| CCCc1cc2c3c(c(=O)oc2cc1OC(=O)CNC(=O)OCc1ccccc1)CCC3 [MolPort-002-526-563, 4-oxo-8-propyl-1H,2H,3H,4H-cyclopenta[c]chromen-7-yl 2-{[(benzyloxy)carbonyl]amino}acetate] | 28.7 | 33.4 | 1.16 | – |
| CC(C)CCC(CCNCc1ccc(OC(C)C)cc1)C1CCOC(C)(C)C1 (stereo not shown) [MolPort-009-758-577, [3-(2,2-dimethyloxan-4-yl)-6-methylheptyl]({[4-(propan-2-yloxy)phenyl]methyl})amine and oxalic acid] | 7.94 | 14.5 | 1.83 | – |
| CC/C=C/C/C=C/C/C=C/C/C=C/C/C=C/C/C=C\CCC(=O)O [MolPort-008-266-638, (4Z,7E,10E,13E,16E,19E)-docosa-4,7,10,13,16,19-hexaenoic acid] | 28.2 | 36.2 | 1.29 | – |
| CC/C=C\C/C=C\C/C=C\CCCCCCCC(=O)O [MolPort-003-937-817, (9Z,12Z,15Z)-octadeca-9,12,15-trienoic acid] | 58.6 | > 100 | 1.71 | – |
| CCCCCCCOC(=O)c1ccc(OC(=O)c2cccnc2)cc1 [MolPort-003-711-757, 4-[(heptyloxy)carbonyl]phenyl pyridine-3-carboxylate] | 24.3 | 49 | 2.02 | – |
| CC(C)(C)c1cc(CCCOC(=O)CNC2CCCCC2)cc(C(C)(C)C)c1O [MolPort-002-152-403, 3-(3,5-di-tert-butyl-4-hydroxyphenyl)propyl 2-(cyclohexylamino)acetate] | 32.5 | 56.2 | 1.73 | – |
| CCOC(=O)c1c(C(C)(C)C)oc2ccc(OC(=O)c3ccc(OC)cc3)cc12 [MolPort-000-424-809, Ethyl 2-tert-butyl-5-(4-methoxybenzoyloxy)-1-benzofuran-3-carboxylate] | 31.2 | > 100 | – | CC50 (in vitro [4]): > 100 µM; IC50 [5]: 50.7 µM; selectivity ratio [6]: 1.97 |

From patent US20260130917A1, “ANTIVIRAL COMPOSITION FOR CORONAVIRUS OR INFLUENZA VIRUS, USING NATURAL PRODUCTS, AND USE THEREOF” (priority 2022, published 2026)
